Two molecules from US20220288038A1, “ABCC11 INHIBITOR” (THE UNIVERSITY OF TOKYO, priority 2019, published 2022) can be followed below.

One experiment concerns the target T1, human ABCC11 (Homo sapiens, UniProt Q96J66).
T1 construct: The complete human ABCC11 cDNA; expressed in transfected cells; host or cells: 293A cells (HEK293-derived), adenovirus-infected; plasma membrane vesicles prepared from them
Nature of the experiment: in vitro DHEAS vesicle transport assay with ABCC11-expressing plasma membrane vesicles. The experiment is classed as biochemical. Conditions: ATP-dependent transport of 100 nM [3H]-DHEAS into ABCC11-expressing 293A plasma membrane vesicles, 5 min, 37° C., febuxostat at indicated concentrations. An excerpt: (§1) Using an in vitro transport system with ABCC11-expresssing plasma. membrane vesicles (FIG. 1A), we investigated the effect of the test compound on ABCC11 function. To confirm the experimental system, we first examined the time-dependent increase in ATP-dependent dehydroepiandrosterone sulfate (DHEAS)—an ABCC11 substrate (Chen et al., 2005)—transport into the ABCC11-expressing plasma membrane vesicles (FIG. 1B).
(§2) Critical materials and resources used in this study were summarized in Supplementary Table S1. […]
Membrane vesicles were prepared from 293A cells infected with the ABCC11-expressing or EGFP-expressing (control) adenovirus as described previously (Toyoda et al., 2017). […] Protein concentration of the plasma membrane vesicles was quantified using a BCA Protein Assay Kit (Pierce, Rockford, Ill., USA) with bovine serum albumin (BSA) as a standard according to the manufacturer's protocol.
Experiments to study the in vitro transport of [1,2,6,7-^3H(N)]-dehydroepiandrosterone sulfate (DHEAS) (Perkin-Elmer Japan, Tokyo, Japan), an ABCC11 substrate (Chen et al., 2005), into ABCC11-expressing and control vesicles were performed by using a rapid filtration technique (Toyoda et al., 2017; Toyoda et al., 2019) with a minor modification. […] Then, the radioactivity derived from the incorporated DHEAS was measured. […]

The target of experiment [1] is T2, human ABCC11 WT (NCBI accession NM_033151) (Homo sapiens, UniProt Q96J66).
T2 construct: made in house; host or cells: plasma membrane vesicles from HEK293-derived 293A cells infected with ABCC11-expressing recombinant adenovirus
T2 sequence (Q96J66 whole entry): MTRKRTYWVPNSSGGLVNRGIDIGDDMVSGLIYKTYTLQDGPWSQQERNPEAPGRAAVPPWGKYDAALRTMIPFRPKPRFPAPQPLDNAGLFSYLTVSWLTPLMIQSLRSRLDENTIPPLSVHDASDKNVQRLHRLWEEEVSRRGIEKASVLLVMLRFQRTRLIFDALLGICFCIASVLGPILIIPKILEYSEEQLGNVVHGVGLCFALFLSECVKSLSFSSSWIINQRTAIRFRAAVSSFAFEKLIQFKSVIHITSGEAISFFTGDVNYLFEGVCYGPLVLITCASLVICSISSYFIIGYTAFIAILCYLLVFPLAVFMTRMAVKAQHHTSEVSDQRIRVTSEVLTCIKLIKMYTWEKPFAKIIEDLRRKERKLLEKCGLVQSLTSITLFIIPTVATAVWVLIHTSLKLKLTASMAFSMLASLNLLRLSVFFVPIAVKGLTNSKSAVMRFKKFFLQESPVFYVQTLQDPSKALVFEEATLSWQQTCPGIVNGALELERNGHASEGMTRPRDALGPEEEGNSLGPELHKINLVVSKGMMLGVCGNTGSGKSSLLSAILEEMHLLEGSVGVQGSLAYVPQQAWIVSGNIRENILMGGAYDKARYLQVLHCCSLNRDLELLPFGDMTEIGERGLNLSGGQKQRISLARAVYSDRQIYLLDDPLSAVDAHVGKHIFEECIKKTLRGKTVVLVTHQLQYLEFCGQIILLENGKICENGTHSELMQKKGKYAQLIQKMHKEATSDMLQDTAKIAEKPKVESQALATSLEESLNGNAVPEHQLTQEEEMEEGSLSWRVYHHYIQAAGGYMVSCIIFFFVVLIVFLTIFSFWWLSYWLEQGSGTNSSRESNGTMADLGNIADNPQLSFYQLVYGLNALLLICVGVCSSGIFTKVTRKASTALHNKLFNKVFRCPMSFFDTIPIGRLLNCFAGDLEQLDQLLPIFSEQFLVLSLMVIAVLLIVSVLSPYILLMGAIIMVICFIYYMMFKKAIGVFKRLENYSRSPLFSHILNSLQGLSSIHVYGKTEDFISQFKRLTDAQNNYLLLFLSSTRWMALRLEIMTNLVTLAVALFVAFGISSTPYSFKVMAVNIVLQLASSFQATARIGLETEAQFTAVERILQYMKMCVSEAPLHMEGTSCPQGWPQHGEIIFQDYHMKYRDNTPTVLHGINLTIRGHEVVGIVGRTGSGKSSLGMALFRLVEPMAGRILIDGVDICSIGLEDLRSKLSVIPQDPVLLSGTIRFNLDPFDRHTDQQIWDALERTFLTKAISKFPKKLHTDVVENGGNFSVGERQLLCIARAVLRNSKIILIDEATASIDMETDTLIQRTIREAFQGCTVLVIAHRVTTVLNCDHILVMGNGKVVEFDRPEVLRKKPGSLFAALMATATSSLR
Nature of the experiment: Inhibition of ABCC11-mediated ATP-dependent [3H]-DHEAS transport into ABCC11-expressing plasma membrane vesicles (vesicle transport assay, rapid filtration). The experiment is classed as biochemical.
Excerpt: as §1, §2
FIG. 1. […] The DHEAS transport into membrane vesicles was measured at the indicated periods with or without ATP; the ATP-dependent DHEAS transport was calculated by subtracting the DHEAS transport activity in the absence of ATP from that in the presence of ATP. Data are expressed as the mean±SD. n=3. […] The DHEAS transport activities were measured in the presence of febuxostat at the indicated concentrations for 5 min. Data are expressed as the mean±SD. n=4. […]
Critical materials and resources used in this study were summarized in Supplementary Table S1. […] After the purification by a CsCl gradient ultracentrifugation method, the adenovirus titer was determined by using an. […]

Entries after “also recorded” stand apart in the source; their conditions may differ.

T1 sequence (Q96J66 whole entry): as above

For `Cc1nc(-c2ccc(OCC(C)C)c(C#N)c2)sc1C(=O)O` [febuxostat], on human ABCC11, the “inhibition of ABCC11-mediated DHEAS transport” value is recorded as “Dose-dependent inhibition; also recorded: inhibited ABCC11”.
In general, IC50 refers to the concentration that inhibits the measured activity by half. A lower IC50 goes with greater potency in that assay. For `Cc1nc(-c2ccc(OCC(C)C)c(C#N)c2)sc1C(=O)O` [Febuxostat], the IC50 in experiment [1] came to 3.26 µM.
